Measurements reported in patent US20250177533A1, “PHOTODYNAMIC THERAPY AND DIAGNOSIS” (RMW CHO Group Limited, priority 2021, published 2025).
Read-outs that look alike come from different tables or passages of the source.

Columns and labels:
E coli DH5α cells = experiment: Photosensitizer uptake into bacterial cells (absorbance spectra of lysates); type: cell-based; conditions: 50 μM, incubated overnight
Protocol: E coli DH5α cells were inoculated into LB media and incubated overnight (shaking at 37° C.) in the presence of 50 μM compound 1 or chlorin e4 disodium. Untreated cells acted as the control. The following day cells were harvested by centrifugation (5000 g, 10 mins, room temperature) and lysed by addition of PBS+1% SDS (w/v)+1% PVP-17 (w/v). Insoluble material was pelleted by centrifugation at 21,000 g (10 mins, bench top centrifuge) and the supernatant transferred to a fresh tube. A 100 μl aliquot was added to clear 96-well microtitre plates and absorbance spectra measured between 600-700 nm (Cytation 3 multimode plate reader). The optical density (OD) was plotted against wavelength in each case to determine uptake of photosensitizer into cells.

[1] = tested on: SKOV3 ovarian cancer cells; experiment: Photosensitizer uptake into SKOV3 cancer cells (absorbance of cell lysates at 405 nm); conditions: SKOV3, 5 μM
[2] = tested on: Human ovarian cancer cell line SKOV3; experiment: Phototoxicity in SKOV3 cells (660 nm laser or LED, AlamarBlue viability); type: cell-based; conditions: for IC90: SKOV3, 24 h uptake, viability 24 h later
Source text: All data are shown as mean±SD (where appropriate).
Media was then replaced with fresh media containing AlamarBlue, and % viable cells remaining assessed as above. […] All measurements were made in quadruplicate.

[3] = tested on: Human ovarian cancer cell line SKOV3; experiment: Inherent cytotoxicity (dark toxicity) in SKOV3 cells (AlamarBlue viability); conditions: SKOV3, 24 h incubation, no light activation
Protocol: (§1) Serial dilutions were prepared in cell culture media (Dulbecco's Modified Eagle Medium/Nutrient Mixture F-12 (DMEM/F-12)) supplemented with 10% v/v Fetal Bovine Serum, 100 U/mL penicillin, 100 μg/mL streptomycin and the same excipient solution at a constant 1:55 dilution.
(§2) Human ovarian cancer cell line SKOV3 (ATCC #HTB-77) was maintained in Dulbecco's Modified Eagle Medium/Nutrient Mixture F-12 (DMEM/F-12), supplemented with 10% v/v Fetal Bovine Serum, 100 U/mL penicillin and 100 μg/mL streptomycin. Monolayer cultures were grown in a humidified incubator at 37° C. with 5% CO2. Once cells had reached ˜80% confluence, spent media was replaced with media containing photosensitizer at the required concentration and cells were incubated for the desired period of time to allow photosensitizer uptake.
(§3) Spectral absorbance and viability measurements were normalized in the range 0-100%, with a minimum of 0 and a maximum value determined from the dataset. Dose response was determined using a sigmoidal four-point non-linear regression with variable slope, and IC10 or IC90 calculated for each compound. All data are shown as mean±SD (where appropriate).
(§4) On reaching ˜60% confluence, media was aspirated and replaced with fresh media containing the relevant phyllochlorin analogue from 0-100 μM in DMSO.
(§5) Untreated cells were used as a control. […] All measurements were made in quadruplicate.
(§6) The phototoxicity and inherent cytotoxicity (i.e. “dark toxicity”) of phyllochlorin analogues were assessed as previously using SKOV3 ovarian cancer cells. For comparative purposes, phyllochlorin analogues were compared against chlorin e4 disodium and Talaporfin sodium, a clinically approved photosensitizer used in the photodynamic treatment of lung cancers.

[4] = tested on: SKOV3 ovarian cancer cells; conditions: human, 5 μM
Protocol: SKOV3 cells were seeded in 96-well black wall plates (Greiner #655090) at a cell density of 5000 cells in 100 μl culture medium per well. […] Cells were incubated for up to 18 hours. At time periods of 10 min, 20 min, 30 min, 60 min, 2 hrs, 4 hrs and 18 hrs, media was removed and the cells lysed in 100 μl of lysis buffer (PBS+1% SDS+1% PVP+Benzonase Nuclease 500 units/mL). Each sample was snap-frozen on dry ice until use.
Eight point standard curves using compound 1 or chlorin e4 disodium were constructed in the range 0-10 μM using serial dilutions in lysis buffer. Cell lysates (100 μl) were thawed, centrifuged at room temperature (21,000 g, 10 mins) and the supernatants transferred to fresh tubes. 100 μl of each supernatant was added neat to 96-well microplates and absorbance measured at 405 nm using a Cytation 3 multimode plate reader. All wells were measured against blank wells containing buffer alone, and a background value measured using untreated cells was subtracted from all samples. The concentration of each chlorin species was determined against the appropriate standard curve in each case.
Chlorin e4 disodium (which enters cells via a passive diffusion process) was included as a comparator, and untreated cells were used as a control. Cells were harvested at time periods from 10 mins to 18 hours post addition of photosensitizers, cells were lysed and the supernatants measured for uptake of photosensitizers against an appropriate standard curve.

[5] = Determination of solubility of phyllochlorin analogues (absorbance maxima as surrogate measure); type: physicochemical
Protocol: Absorbance maxima were used as a surrogate measure of solubility. The relevant phyllochlorin analogue was diluted to 50 μM in PBS (phosphate buffered saline) solutions containing decreasing amounts of DMSO from 100% to 0%.
Where required, polyvinylpyrrolidone (K30) was added to a final concentration of 1% w/v. Absorbance was measured using a Cytation 3 Multimode Plate Reader (Biotek) in spectral scanning mode, with spectra captured between 500-800 nm in 2 nm increments. Equivalent blank solutions were also measured and subtracted accordingly. Each spectrum was normalized to have a minimum signal of 0, and a maximum signal in pure DMSO solution (the most soluble state) of 100%.
The solubility of compound 1 was assessed in solutions containing DMSO as an organic solvent. Compound 1 (50 μM final concentration) was resuspended in 100% DMSO to fully dissolve compound 1, in the presence or absence of 1% PVP (w/v). With concentrations of compound 1 maintained at 50 μM the % DMSO was decreased in a stepwise manner from 100% to 0%. All solutions were mixed by vortexing, then centrifuged for 2 mins to pellet any insoluble material. A 150 μl aliquot was transferred to individual wells of a 96-well clear microplate, and absorbance spectra collected between 500-800 nm in 2 nm increments. Equivalent solutions containing decreasing % DMSO were used to control for background.

[6] = tested on: Human ovarian cancer cell line SKOV3; conditions: 24 h
Protocol: as §1, §2, §3, §4, §5, §6

[7] = 660 nm laser 50 mW/cm^2 for 5 mins (15 J/cm^2), read-out: Phototoxicity μM (IC90)
[8] = Homo sapiens, SK-OV-3, light or radiation study, 660 nm LED panel 50 mW/cm^2 for 5 mins (15 J/cm^2), read-out: Phototoxicity μM (IC90), measured by LED

Molecule	Dark toxicity μM (IC10) [3]	Dark toxicity μM (IC10) [6]	IC90 [2, 8]	further results
C=Cc1c(C)c2cc3nc(c(C)c4[nH]c(cc5nc(cc1[nH]2)C(C)=C5CC)c(C)c4C(=O)O)[C@@H](CCC(=O)O)[C@@H]3C [Chlorin e4 disodium, reference compound]	40.23 µM	–	–	detection in bacterial lysates (E coli DH5α cells): detected marginally above background; detectability in cells [1]: undetectable until after one hour of incubation; time of reaching maximum accumulation [1]: 18 h; IC90 [2, 7]: 21.3 µM
CCC1=C(C)c2cc3[nH]c(cc4nc(c(C)c5cc(C)c(cc1n2)[nH]5)[C@@H](CCC(=O)OC)[C@@H]4C)c(C)c3C(C)OCCCS[C@@H]1O[C@H](CO)[C@@H](O)[C@H](O)[C@H]1O (stereo partly drawn) [Compound 1, methyl 3-((7S,8S)-18-ethyl-2,5,8,12,17-pentamethyl-13-(1-(3-(((2S,3R,4S,5S,6R)-3,4,5-trihydroxy-6-(hydroxymethyl)tetrahydro-2H-pyran-2-yl)thio)propoxy)ethyl)-7H,8H-porphyrin-7-yl) propanoate]	–	13.500 µM	–	detection in bacterial lysates (E coli DH5α cells): clearly detectible; observed in cells (time of incubation) [4]: ≤ 10 min; rate of uptake [4]: substantially faster than that of chlorin e4 disodium; time the rate of uptake was maintained after addition of photosensitizer [4]: 2 to 4 h; apparent solubility ([5]; 50 μM, DMSO concentrations below 40%): ~45%; solubility ([5]; 50 μM, concentrations above 70% DMSO): completely soluble; solubility in aqueous solution ([5]; 50 μM, no DMSO, addition of PVP 1%): ~75 % of maximal; absorbance maxima ([5]; in the presence of 1% PVP (w/v)): 650±2 nm; IC90 ([2]; Homo sapiens, SK-OV-3, light or radiation study, 660 nm laser 50 mW/cm^2 for 5 mins (15 J/cm^2), read-out: Phototoxicity μM (IC90)): 0.06 µM
CCC1=C(C)c2cc3[nH]c(cc4nc(c(C)c5cc(C)c(cc1n2)[nH]5)[C@@H](CCC(=O)OC)[C@@H]4C)c(C)c3COC(=O)NCCCCCC[P+](c1ccccc1)(c1ccccc1)c1ccccc1 [Compound 39, phyllochlorin methyl ester 13-(6-(triphenylphosphonium bromide)hexyl)carbamate]	–	6.403 µM	0.0018 µM	–
CCC1=C(C)c2cc3[nH]c(cc4nc(c(C)c5cc(C)c(cc1n2)[nH]5)[C@@H](CCC(=O)OC)[C@@H]4C)c(C)c3COC(=O)NCCCOCCC[P+](c1ccccc1)(c1ccccc1)c1ccccc1 [Compound 40, phyllochlorin methyl ester 13-(N-(3-(3-triphenylphosphoniumpropoxy)propyl)chloride)carbamate]	0.6145 µM	–	0.0008 µM	–
CCC1=C(C)c2cc3[nH]c(cc4nc(c(C)c5cc(C)c(cc1n2)[nH]5)[C@@H](CCC(=O)N(C)CCOCCOCCOC)[C@@H]4C)c(C)c3CO [Compound 42, phyllochlorin 13-hydroxymethyl N-methyl-N-3,6,9-trioxadecyl propylamide]	–	4.252 µM	0.245 µM	–
CCC1=C(C)c2cc3[nH]c(cc4nc(c(C)c5cc(C)c(cc1n2)[nH]5)[C@@H](CCC(=O)N(C)CCOCCOCCOC)[C@@H]4C)c(C)c3COC(=O)NCCCCCC[P+](c1ccccc1)(c1ccccc1)c1ccccc1 [Compound 43, phyllochlorin 13-(6-(triphenylphosphonium bromide)hexyl)carbamate N-methyl-N-3,6,9-trioxadecyl propylamide]	–	0.5889 µM	0.0042 µM	–
CCC1=C(C)c2cc3[nH]c(cc4nc(c(C)c5cc(C)c(cc1n2)[nH]5)[C@@H](CCC(=O)OC)[C@@H]4C)c(C)c3COC(=O)NCCC[P+](c1ccccc1)(c1ccccc1)c1ccccc1 [Compound 45, phyllochlorin methyl ester 13-(N-(3-triphenylphosphoniumpropyl)bromide)carbamate]	3.977 µM	–	0.0012 µM	–
CCC1=C(C)c2cc3[nH]c(cc4nc(c(C)c5cc(C)c(cc1n2)[nH]5)[C@@H](CCC(=O)OC)[C@@H]4C)c(C)c3COC(=O)NCC[P+](c1ccccc1)(c1ccccc1)c1ccccc1 [Compound 46, phyllochlorin methyl ester 13-(N-(2-triphenylphosphoniumethyl)bromide)carbamate]	–	1.277 µM	0.0014 µM	–
CCC1=C(C)c2cc3[nH]c(cc4nc(c(C)c5cc(C)c(cc1n2)[nH]5)[C@@H](CCC(=O)N(C)CCOC)[C@@H]4C)c(C)c3COC(=O)NCCC[P+](c1ccccc1)(c1ccccc1)c1ccccc1 [Compound 50, phyllochlorin N-methyl-N-(2-methoxy)ethyl propylamide 13-(N-(3-triphenylphosphoniumpropyl)bromide)carbamate]	0.470 µM	–	0.0016 µM	–
CCC1=C(C)c2cc3[nH]c(cc4nc(c(C)c5cc(C)c(cc1n2)[nH]5)[C@@H](CCC(=O)NCCOC)[C@@H]4C)c(C)c3COC(=O)NCCC[P+](c1ccccc1)(c1ccccc1)c1ccccc1 [Compound 52, phyllochlorin N-(2-methoxy)ethyl propylamide 13-(N-(3-triphenylphosphoniumpropyl)bromide)carbamate]	1.060 µM	–	0.0052 µM	–
CCOC(=O)CC[C@@H]1c2nc(cc3[nH]c(cc4nc(cc5[nH]c(cc5C)c2C)C(CC)=C4C)c(COC(=O)NCCC[P+](c2ccccc2)(c2ccccc2)c2ccccc2)c3C)[C@H]1C [Compound 53, phyllochlorin ethyl ester 13-(N-(3-triphenylphosphoniumpropyl)bromide)carbamate]	2.240 µM	–	0.00077 µM	greater phototoxicity compared to Talaporfin sodium ([2]; SKOV3, IC90): 5 orders of magnitude
C=Cc1c(C)c2cc3nc(c(CC(=O)N[C@@H](CC(=O)O)C(=O)O)c4[nH]c(cc5nc(cc1[nH]2)C(C)=C5CC)c(C)c4C(=O)O)[C@@H](CCC(=O)O)[C@@H]3C [Talaporfin sodium, reference compound]	11.10 µM	–	–	–
phyllochlorin 13-(N-(3-(3-triphenylphosphoniumpropoxy)propyl)chloride)carbamate N-methyl-N-3,6,9-trioxadecyl propylamide [Compound 44]	0.5603 µM	–	–	IC90 ([2]; 660 nm LED panel 50 mW/cm^2 for 5 mins (15 J/cm^2), read-out: Phototoxicity μM (IC90), measured by LED): 0.0057 µM
phyllochlorin methyl ester 3-triphenylphosphonium bromide propyl ether [Compound 21]	3.801 µM	–	–	IC90 [2, 7]: 0.012 µM
